Assay results as given in patent US8986738B2, “Inhalative and instillative use of semifluorinated alkanes as an active substance carrier in the intrapulmonary area” (NOVALIQ GmbH, priority 2008, dated 2015).

Test: Intratracheal bolus instillation of alpha-tocopherol solution in F6H8
Type: in vivo
Details: pigs
Description: In the clinical experiment on pigs some of that solution was intratracheally instilled bolus-wise.

For `Cc1c(C)c2c(c(C)c1O)CC[C@@](C)(CCC[C@H](C)CCC[C@H](C)CCCC(C)C)O2` [alpha-tocopherol], the “location of the drug after exhaling the SFA” value was “remained in the alveolar region” and the “transfer of the drug into the bloodstream” value was “no transfer of the drug into the bloodstream was detected”.
